Values joined by “and” are separate entries in the source; they are usually repeats but may differ in a detail not shown here. Equal values may be shown once. Where a name gives a salt, the structure may show the parent alone.
Settings: instrument: DT, single field, calibrated with Agilent tune mix (Agilent)

In the case of COc1cc(/C=C/C(=O)CC(=O)/C=C/c2ccc(O)c(OC)c2)ccc1O [Curcumin], the “collision cross section (N2)” value ([M+H]+) is reported as 201.6 Å² and the “collision cross section (N2)” value ([M+Na-2H]-) is reported as 178.82 Å².

In the case of N[C@@H](CSS(=O)(=O)O)C(=O)O [Cysteine-S-sulfate], the “collision cross section (N2)” value ([M+H]+) is reported as 144.2 Å² and the “collision cross section (N2)” value ([M+Na-2H]-) is reported as 133.29 Å².

For Nc1ccn([C@@H]2O[C@H](COP(=O)(O)OP(=O)(O)O)[C@@H](O)[C@H]2O)c(=O)n1 [Cytidine 5'-diphosphate], the “collision cross section (N2)” value ([M-H]-) was 171.31 Å².

In the case of N[C@H](CC(=O)O)C(=O)O [D-Aspartic acid], the “collision cross section (N2)” value ([M-H]-) is reported as 116.91 Å².

In the case of O=C(CO)[C@@H](O)[C@H](O)[C@H](O)COP(=O)(O)O [D-Fructose-6-phosphate], the “collision cross section (N2)” value ([M+Na]+) is reported as 154.2 Å².

In the case of OC1OC[C@@H](O)[C@@H](O)[C@H]1O (stereo partly drawn) [D-Ribose], the “collision cross section (N2)” value ([M+Na]+) is reported as 135.3 Å².

With OC[C@@H](O)[C@@H](O)[C@H](O)[C@@H](O)CO [D-Sorbitol] the “collision cross section (N2)” value ([M+Na]+) was 142.5 Å² and the “collision cross section (N2)” value ([M-H]-) was 129.64 Å².

With O=C(O)[C@H]1OC(O)[C@H](O)[C@@H](O)[C@H]1O (stereo partly drawn) [D-galacturonic acid] the “collision cross section (N2)” value ([M+Na]+) was 143.7 Å² and the “collision cross section (N2)” value ([M-H]-) was 128.3 Å².

In the case of O=C([O-])[C@H](O)[C@@H](O)[C@H](O)[C@H](O)CO [D-gluconate], the “collision cross section (N2)” value ([M+Na]+) is reported as 145.8 Å².

For CCCCCCCCCC(=O)SCCNC(=O)CCNC(=O)[C@H](O)C(C)(C)COP(=O)(O)OP(=O)(O)OC[C@H]1O[C@@H](n2cnc3c(N)ncnc32)[C@H](O)[C@@H]1OP(=O)(O)O [Decanoyl-CoA], the “collision cross section (N2)” value ([M+H]+) was 277 Å² and the “collision cross section (N2)” value ([M-H]-) was 276 Å².

With Nc1nc(=O)c2ncn([C@H]3C[C@H](O)[C@@H](CO)O3)c2[nH]1 [Deoxyguanosine] the “collision cross section (N2)” value ([M+Na]+) was 171.7 Å² and the “collision cross section (N2)” value ([M-H]-) was 156.76 Å².

With Cc1cn([C@H]2C[C@H](O)[C@@H](COP(=O)(O)OP(=O)(O)O)O2)c(=O)[nH]c1=O [Deoxythymidine 5'-diphosphate] the “collision cross section (N2)” value ([M+Na]+) was 177.6 Å² and the “collision cross section (N2)” value ([M-H]-) was 172.11 Å².

For O=c1ccn([C@H]2C[C@H](O)[C@@H](COP(=O)(O)O)O2)c(=O)[nH]1 [Deoxyuridine monophosphate], the “collision cross section (N2)” value ([M+Na]+) was 167.5 Å² and the “collision cross section (N2)” value ([M-H]-) was 156 Å².

In the case of C[C@@H]1NC(=O)N[C@@H]1CCCCCC(=O)O [Dethiobiotin], the “collision cross section (N2)” value ([M+2Na-3H]-) is reported as 162.06 Å² and the “collision cross section (N2)” value ([M+H]+) is reported as 144.1 Å².

With NC(CCCC(N)C(=O)O)C(=O)O (centres undefined) [Diaminopimelic acid] the “collision cross section (N2)” value ([M+H]+) was 140.8 Å² and the “collision cross section (N2)” value ([M-H]-) was 134.28 Å².

In the case of CC1CNC(=O)NC1=O (centres undefined) [Dihydrothymine], the “collision cross section (N2)” value ([M+H]+) is reported as 131.2 Å².

For O=C(CO)COP(=O)(O)O [Dihydroxyacetone phosphate], the “collision cross section (N2)” value ([M+Na]+) was 146.7 Å².

In the case of CCCCCCCCCCCC(=O)O [Dodecanoic acid], the “collision cross section (N2)” value ([M-H]-) is reported as 152.58 Å².

In the case of O=C(O)CN(CCN(CC(=O)O)CC(=O)O)CC(=O)O [EDTA], the “collision cross section (N2)” value ([M+H]+) is reported as 159.6 Å² and the “collision cross section (N2)” value ([M-H]-) is reported as 151.17 Å².

With C=C1CC[C@H](O)C/C1=C/C=C1\CCC[C@]2(C)[C@@H]([C@H](C)/C=C/[C@H](C)C(C)C)CC[C@@H]12 [Ergocalciferol] the “collision cross section (N2)” value ([M+H]+) was 202.4 Å² and 203.2 Å².

For C[C@]12CC[C@@H]3c4ccc(O[C@@H]5O[C@H](C(=O)O)[C@@H](O)[C@H](O)[C@H]5O)cc4CC[C@H]3[C@@H]1CCC2=O [Estrone-3-glucuronide], the “collision cross section (N2)” value ([M-H]-) was 215.74 Å².

With CCO[C@@H]1O[C@H](C(=O)O)[C@@H](O)[C@H](O)[C@H]1O [Ethyl glucuronide] the “collision cross section (N2)” value ([M-H]-) was 143.97 Å².

With CC(C)=CCC/C(C)=C/CC/C(C)=C/COP(=O)(O)OP(=O)(O)O [Farnesyl pyrophosphate] the “collision cross section (N2)” value ([M-H]-) was 183.85 Å².

For Cc1cc2nc3c(=O)[nH]c(=O)nc-3n(C[C@H](O)[C@H](O)[C@H](O)COP(=O)(O)O)c2cc1C [Flavin mononucleotide], the “collision cross section (N2)” value ([M+H]+) was 199.1 Å² and the “collision cross section (N2)” value ([M-H]-) was 194.92 Å².

For O=P(O)(O)OC[C@H]1O[C@@](O)(COP(=O)(O)O)[C@@H](O)[C@@H]1O [Fructose 1,6-bisphosphate], the “collision cross section (N2)” value ([M+Na]+) was 168.2 Å².

With CCCCC/C=C\C/C=C\C/C=C\CCCCC(=O)O [Gamma-Linolenic acid] the “collision cross section (N2)” value ([M-H]-) was 172.84 Å².

For O=P(O)(O)OC[C@H]1OC(O)[C@H](O)[C@@H](O)[C@@H]1O (some centres undefined) [Glucose 6-phosphate], the “collision cross section (N2)” value ([M+Na]+) was 158.1 Å².

For O=P(O)(O)OCC(O)CO (centres undefined) [Glycerol 3-phosphate], the “collision cross section (N2)” value ([M-H]-) was 124.86 Å².

For C[C@H](CCC(=O)NCC(=O)O)[C@H]1CC[C@H]2[C@@H]3[C@H](O)C[C@@H]4C[C@H](O)CC[C@]4(C)[C@H]3C[C@H](O)[C@]12C [Glycocholic acid], the “collision cross section (N2)” value ([M+Na]+) was 202 Å² and the “collision cross section (N2)” value ([M-H]-) was 200.58 Å².

For C[C@H](CCC(=O)NCC(=O)O)[C@H]1CC[C@H]2[C@@H]3CC[C@@H]4C[C@H](O)CC[C@]4(C)[C@H]3CC[C@]12C [Glycolithocholic acid], the “collision cross section (N2)” value ([M+H]+) was 200.9 Å² and the “collision cross section (N2)” value ([M+Na-2H]-) was 205.49 Å².

In the case of COc1ccc2c(c1)[nH]c1c(C)nccc12 [Harmine], the “collision cross section (N2)” value ([M+H]+) is reported as 146 Å² and the “collision cross section (N2)” value ([M-H]-) is reported as 145.28 Å².

For O=C(O)CNC(=O)c1ccccc1 [Hippuric acid], the “collision cross section (N2)” value ([M-H]-) was 139.72 Å².

In the case of COc1cc(CC(=O)O)ccc1O [Homovanillic acid], the “collision cross section (N2)” value ([M-H]-) is reported as 134.15 Å².

In the case of C[C@]12CCC(=O)C=C1CC[C@@H]1[C@@H]2[C@@H](O)C[C@@]2(C)[C@H]1CC[C@]2(O)C(=O)CO [Hydrocortisone (Cortisol)], the “collision cross section (N2)” value ([M+H]+) is reported as 189.1 Å².

For O=C(O)C(O)Cc1ccc(O)cc1 (centres undefined) [Hydroxyphenyllactic acid], the “collision cross section (N2)” value ([M-H]-) was 139.4 Å².

With O=C(O)Cc1cnc[nH]1 [Imidazoleacetic acid] the “collision cross section (N2)” value ([M+H]+) was 123.1 Å².

With O=C(O)c1c[nH]c2ccccc12 [Indole-3-carboxylic acid] the “collision cross section (N2)” value ([M+H]+) was 132.4 Å² and the “collision cross section (N2)” value ([M-H]-) was 124.5 Å².

With c1ccc2[nH]ccc2c1 [Indole] the “collision cross section (N2)” value ([M+H]+) was 121 Å² and the “collision cross section (N2)” value ([M-H]-) was 117.08 Å².

For O=C(O)Cc1c[nH]c2ccccc12 [Indoleacetic acid], the “collision cross section (N2)” value ([M+H]+) was 136.2 Å².

With O=C(O)C(O)Cc1c[nH]c2ccccc12 (centres undefined) [Indolelactic acid] the “collision cross section (N2)” value ([M+H]+) was 143.8 Å² and the “collision cross section (N2)” value ([M-H]-) was 146.51 Å².

With O=S(=O)(O)Oc1c[nH]c2ccccc12 [Indoxyl sulfate] the “collision cross section (N2)” value ([M-H]-) was 140.6 Å².

Source: the C3SDB collision cross section collection
